Assay results reported in patent US20060217305A1, “Induction of tumor cell senescence by retinoid receptor agonists and antagonists” (Ordway Research Institute, Inc., priority 2005, published 2006).
Several values for one entry are separate records, joined by “and”; a condition that tells them apart may be missing. Equal values may be shown once.

Test system: MCF-7 cells, human transcripts
Test: Affymetrix U133 2.0 Plus microarray analysis of gene expression
Assay type: cell-based
Experimental: FIG. 4 depicts microarray analysis of changes in gene expression in MCF-7 cells treated with RAR agonist LGD1550 or RAR antagonist LG100815, plotted using GeneSpring software. The X axis represents different time points of treatment with RAR ligands (0 point correspond to cells cultured for 3 days with DMSO carrier).
To determine the effects of the RAR agonist and antagonist on the expression of essentially all the human genes, MCF-7 cells were treated with 100 nM of RAR agonist LGD1550 or 10 μM of RAR antagonist LG100815, concentrations that provide maximal induction of gene expression according to Q-PCR assays (as discussed above). Cells were treated for 24, 48 or 72 hrs, and total RNA from the untreated or treated cells was isolated using Qiagen's RNeasy Total RNA Isolation Kit. For gene expression profiling, RNA samples were provided to the microarray service facility of the Wadsworth Center Genomics Institute, which carried out biotinylated target preparation and hybridization with Affymetrix U 133 2.0 Plus oligonucleotide microarrays containing 56,000 probe sets representing 48,500 human transcripts. The hybridization signals were normalized using GCRMA procedure and analyzed using GeneSpring software (Silicone Genetics). […] The effects of the agonist and the antagonist also agreed with the results of the earlier analysis of the effects of RA on MCF-7 cells, with all 13 genes previously shown by RT-PCR to be induced in that system (Dokmanovic et al., 2002) also showing induction in the present microarray analysis (FIG. 4b).
RNA or protein products of genes that are induced to a similar level by both the RAR agonist and the RAR antagonist can be used as reporters in screening for compounds with properties similar to LG0100815. RNA or protein products of genes from this group (or promoter constructs for such genes) can be used as reporters in screening for compounds that mimic the effect of retinoids. Table 3, as shown below, lists a set of 508 genes chosen as preferred reporters. These genes were selected by being strongly (at least 2-fold) induced by both the agonist and the antagonist relative to untreated cells and showing no more than two-fold difference between their induction by the agonist and the antagonist. 62 genes listed at the top of Table 3 are particularly preferred reporters, as they are most strongly (at least 4-fold) induced by both the agonist and the antagonist. Table 4, as shown below, lists a set of 53 genes that can be used as preferred markers to discriminate between RARE-dependent and RARE-independent induction of transcription. These genes were chosen by being induced at least 3-fold by the agonist relative to untreated cells and also showing at least 4 times stronger induction by the agonist than by the antagonist. FIG. 6 plots the maximal fold induction of gene expression produced by the agonist versus that produced by the antagonist for the genes listed in Table 3 (particularly preferred reporters only) and in Table 4, with the corresponding trend lines. The relative effects of a tested compound on the genes in Table 3 and Table 4 should indicate whether the compound behaves as a RAR agonist or RAR antagonist. For example, one can select matching pairs of genes from Table 3 and Table 4 that are induced by the agonist to approximately the same degree. A compound that mimics the effects of the agonist should induce such genes to a similar level, whereas a compound that behaves like an antagonist should induce the gene from Table 3 to a much greater degree than the gene from Table 4.

[1] = MCF-7, LGD1550 100 nM, 24, 48 or 72 hrs
[2] = MCF-7, LGD1550 100 nM, 24, 48 or 72 hrs, listed as agonist

CC(/C=C/C=C(\C)c1cc(C(C)(C)C)cc(C(C)(C)C)c1)=C\C(=O)O [LGD1550]
Maximal effect, Fold induction (Genbank AI911972, probe 230780_at): 3.89 fold
Maximal effect, Fold induction (Genbank AW268719, probe 236798_at): 2.03 fold
Maximal effect, Fold induction (Genbank AW612407, probe 230098_at): 2.32 fold
Maximal effect, Fold induction (Genbank BF038869, probe 235322_at): 2.13 fold
Maximal effect, Fold induction (Genbank CA442342, probe 1556097_at): 3.11 fold
HOXA4 fold induction by the agonist (MCF-7, LGD1550 100 nM): 7.8 fold
RBP1 fold induction by the agonist (MCF-7, LGD1550 100 nM): 4.4 fold
number of 40 RARE-containing human genes induced ≧1.5-fold (MCF-7, LGD1550 100 nM): seven
response of RARE-containing genes induced by both ligands, agonist relative to antagonist (MCF-7, LGD1550 100 nM vs LG100815 10 μM): 3-5 fold stronger
APXL2 239435_x_at fold induction, maximal effect of agonist [1]: 63.13 fold
APXL2 241935_at fold induction, maximal effect of agonist [1]: 5.82 fold
BF593636 228642_at fold induction, maximal effect of agonist [1]: 130.43 fold
CA448125 1557050_at fold induction, maximal effect of agonist [1]: 8.90 fold
CA448125 1557051_s_at fold induction, maximal effect of agonist [1]: 23.74 fold
CEACAM1 206576_s_at fold induction, maximal effect of agonist [1]: 16.23 fold
CP 228143_at fold induction, maximal effect of agonist [1]: 10.88 fold
CP 1558034_s_at fold induction, maximal effect of agonist [1]: 44.25 fold
CYP1A1 205749_at raw signal, maximal effect of agonist [1]: 35.09
GBP3 223434_at fold induction, maximal effect of agonist [1]: 7.32 fold
HOXA3 230080_at fold induction, maximal effect of agonist [1]: 10.38 fold
HPS3 227253_at fold induction, maximal effect of agonist [1]: 21.01 fold
HSXIAPAF1 228617_at fold induction, maximal effect of agonist [1]: 17.54 fold
IGFBP3 212143_s_at fold induction, maximal effect of agonist [1]: 16.12 fold
KRT4 213240_s_at fold induction, maximal effect of agonist [1]: 9.38 fold
OAS2 204972_at fold induction, maximal effect of agonist [1]: 15.91 fold
RNASE1 201785_at fold induction, maximal effect of agonist [1]: 49.39 fold
SLC1A1 213664_at fold induction, maximal effect of agonist [1]: 8.96 fold
TRIM31 215444_s_at fold induction, maximal effect of agonist [1]: 12.16 fold
CYP26A1 206424_at fold induction, maximal effect of agonist [2]: 220 fold and 220.23 fold
HOXA1 214639_s_at fold induction, maximal effect of agonist [2]: 95 fold
Maximal effect, Fold induction (gene ACVR1B, Genbank NM_020327, probe 208223_s_at): 2.81 fold
Maximal effect, Fold induction (gene ADFP, Genbank BC005127, probe 209122_at): 2.05 fold
Maximal effect, Fold induction (gene AKAP13, Genbank AK022014, probe 222024_s_at): 2.03 fold
Maximal effect, Fold induction (gene AMIGO, Genbank AA001423, probe 226718_at): 2.40 fold
Maximal effect, Fold induction (gene ARHGAP5, Genbank AK023014, probe 233849_s_at): 2.03 fold
Maximal effect, Fold induction (gene ARMCX3, Genbank AL121883, probe 222444_at): 2.01 fold
Maximal effect, Fold induction (gene BHLHB2, Genbank NM_003670, probe 201170_s_at): 3.46 fold
Maximal effect, Fold induction (gene CASP2, Genbank BC002427, probe 209811_at): 3.72 fold
Maximal effect, Fold induction (gene CDKL5, Genbank AI611074, probe 227004_at): 3.20 fold
Maximal effect, Fold induction (gene CHP, Genbank NM_007236, probe 207993_s_at): 2.32 fold
Maximal effect, Fold induction (gene CRTAP, Genbank AA025858, probe 227138_at): 2.07 fold
Maximal effect, Fold induction (gene CTMP, Genbank AI184512, probe 229253_at): 2.03 fold
Maximal effect, Fold induction (gene DKFZp434H2226, Genbank AL137370, probe 232893_at): 2.04 fold
Maximal effect, Fold induction (gene DKFZp434K2435, Genbank AL136855, probe 223594_at): 2.08 fold
Maximal effect, Fold induction (gene DNCL2B, Genbank AW959427, probe 238116_at): 2.02 fold
Maximal effect, Fold induction (gene DSCR1, Genbank NM_004414, probe 208370_s_at): 3.64 fold
Maximal effect, Fold induction (gene DUSP3, Genbank NM_004090, probe 201538_s_at): 2.94 fold
Maximal effect, Fold induction (gene DUSP16, Genbank AY038927, probe 1555399_a_at): 2.30 fold
Maximal effect, Fold induction (gene FLJ10996, Genbank NM_019044, probe 219774_at): 2.02 fold
Maximal effect, Fold induction (gene FLJ11196, Genbank NM_018357, probe 218651_s_at): 2.24 fold
Maximal effect, Fold induction (gene FLJ30656, Genbank BF197707, probe 212529_at): 2.09 fold
Maximal effect, Fold induction (gene FLJ32096, Genbank AK056658, probe 1555870_at): 2.98 fold
Maximal effect, Fold induction (gene FOXO3A, Genbank N25732, probe 204131_s_at): 2.53 fold
Maximal effect, Fold induction (gene GALNT7, Genbank BF699855, probe 222587_s_at): 2.51 fold
Maximal effect, Fold induction (gene GUCY1B2, Genbank NM_004129, probe 220506_at): 2.63 fold
Maximal effect, Fold induction (gene HIG2, Genbank NM_013332, probe 218507_at): 2.19 fold
Maximal effect, Fold induction (gene HNRPL, Genbank X16135, probe 35201_at): 2.16 fold
Maximal effect, Fold induction (gene INPP1, Genbank NM_002194, probe 202794_at): 2.01 fold
Maximal effect, Fold induction (gene INSIG1, Genbank BG292233, probe 201626_at): 2.04 fold
Maximal effect, Fold induction (gene JMJD3, Genbank AB002344, probe 41386_i_at): 2.48 fold
Maximal effect, Fold induction (gene KIAA1219, Genbank BG236163, probe 221738_at): 2.03 fold
Maximal effect, Fold induction (gene LCP1, Genbank J02923, probe 208885_at): 2.25 fold
Maximal effect, Fold induction (gene LGALS8, Genbank L78132, probe 208935_s_at): 2.79 fold
Maximal effect, Fold induction (gene LOC23117, Genbank AL047052, probe 235060_at): 2.00 fold
Maximal effect, Fold induction (gene LOC55971, Genbank AA496034, probe 227372_s_at): 2.09 fold
Maximal effect, Fold induction (gene LOC158402, Genbank BE504242, probe 236769_at): 2.00 fold
Maximal effect, Fold induction (gene LOC284408, Genbank AW467077, probe 235779_at): 2.03 fold
Maximal effect, Fold induction (gene MAML2, Genbank AI769569, probe 235457_at): 3.92 fold
Maximal effect, Fold induction (gene MAP3K1, Genbank AA541479, probe 225927_at): 2.05 fold
Maximal effect, Fold induction (gene MDM4, Genbank NM_002393, probe 205655_at): 2.06 fold
Maximal effect, Fold induction (gene MGC9850, Genbank BE378670, probe 224857_s_at): 2.58 fold
Maximal effect, Fold induction (gene MICAL2, Genbank BE965029, probe 212473_s_at): 2.01 fold
Maximal effect, Fold induction (gene MT1X, Genbank NM_005952, probe 208581_x_at): 3.10 fold
Maximal effect, Fold induction (gene NEDD9, Genbank AL136139, probe 202149_at): 2.24 fold
Maximal effect, Fold induction (gene NQO1, Genbank AI039874, probe 201467_s_at): 2.56 fold
Maximal effect, Fold induction (gene NR3C1, Genbank AI432196, probe 201865_x_at): 2.08 fold
Maximal effect, Fold induction (gene PARVA, Genbank NM_018222, probe 217890_s_at): 2.17 fold
Maximal effect, Fold induction (gene PRDM15, Genbank AP001745, probe 225539_at): 2.04 fold
Maximal effect, Fold induction (gene PRSS23, Genbank NM_007173, probe 202458_at): 2.05 fold
Maximal effect, Fold induction (gene PSMD7, Genbank AW361702, probe 238738_at): 2.04 fold
Maximal effect, Fold induction (gene PTK9, Genbank N25562, probe 214008_at): 2.05 fold
Maximal effect, Fold induction (gene QDPR, Genbank BC000576, probe 209123_at): 2.02 fold
Maximal effect, Fold induction (gene S100P, Genbank NM_005980, probe 204351_at): 2.33 fold
Maximal effect, Fold induction (gene SGPL1, Genbank NM_003901, probe 208381_s_at): 2.14 fold
Maximal effect, Fold induction (gene SLC35D2, Genbank AJ005866, probe 213083_at): 2.73 fold
Maximal effect, Fold induction (gene SMAD5, Genbank AI439752, probe 235451_at): 2.30 fold
Maximal effect, Fold induction (gene STYX, Genbank BG390493, probe 244030_at): 2.01 fold
Maximal effect, Fold induction (gene SUOX, Genbank NM_000456, probe 1553030_a_at): 2.05 fold
Maximal effect, Fold induction (gene TACSTD2, Genbank J04152, probe 202286_s_at): 2.17 fold
Maximal effect, Fold induction (gene TEAD2, Genbank AA337048, probe 238323_at): 2.81 fold
Maximal effect, Fold induction (gene TGFB2, Genbank AU145950, probe 228121_at): 2.04 fold
Maximal effect, Fold induction (gene TLE3, Genbank AI567426, probe 212769_at): 2.72 fold
Maximal effect, Fold induction (gene TMEM42, Genbank BF056095, probe 226361_at): 2.47 fold
Maximal effect, Fold induction (gene TNFAIP2, Genbank NM_006291, probe 202510_s_at): 2.41 fold
Maximal effect, Fold induction (gene TRIO, Genbank AV718192, probe 209012_at): 2.07 fold
Maximal effect, Fold induction (gene UROS, Genbank NM_000375, probe 203031_s_at): 2.13 fold
Maximal effect, Fold induction (gene USP24, Genbank BF444943, probe 212381_at): 2.01 fold
Maximal effect, Fold induction (gene VHL, Genbank BF972755, probe 1559227_s_at): 2.05 fold
Maximal effect, Fold induction (gene WIG1, Genbank NM_022470, probe 219628_at): 2.30 fold
Maximal effect, Fold induction (gene ZNF26, Genbank BC046206, probe 1555325_s_at): 2.03 fold
Maximal effect, Fold induction (gene ZNF281, Genbank AA121673, probe 228785_at): 2.28 fold
Maximal effect, Fold induction (gene ZNF286, Genbank BM968434, probe 1557684_at): 2.29 fold
